Source: PMC10630888, “Nuclear ERK1/2 signaling potentiation enhances neuroprotection and cognition via Importinα1/KPNA2” (EMBO Molecular Medicine, 2023)
“And” between values parts separate entries of the source, which are not always exact repeats. Equal values may be shown once.

Legend:
[1] = system: SC-CA1 synapses, CA1 pyramidal neurons; experiment: Whole-cell patch clamp, EPSCs at SC-CA1 synapses in hippocampal slices; format: cell-based, rat; settings: peptide 50 μM in intracellular solution, 30–35 min, mean, RB5 n = 12 cells, Scr n = 8 cells, 4 animals
[2] = system: pERK; experiment: pERK in striatum of HdhQ111/+ mice treated with RB5; format: in vivo, mouse; settings: for pERK in striatum (Fig 5 panel d): individual animals
Protocol: (§1) Immunohistochemistry was performed as described in Papale et al ([2016]). Briefly, 1 h after blocking in 5% normal goat serum and 0.1% Triton X‐100 solution, free‐floating sections were incubated overnight at 4°C with one of the following primary antibodies: anti‐phospho‐p44/42 MAP kinase (Thr202/Tyr204) (1:200, Cell Signaling Technology #9101), anti‐phospho–Elk‐1 (Ser383) (1:100, Cell Signaling #9181), anti‐phospho‐Kv4.2 (Thr607)‐R (1:100, Santa Cruz sc22254‐R), anti‐phospho‐MSK‐1 (1:100 Cell Signaling Technology #9595), anti‐phospho‐MEK1/2 (Ser218/222) (1:100, sc‐7995 Santa Cruz Biotechnology), c‐Fos (1:100, sc‐52 Santa Cruz Biotechnology), tyrosine Hydroxylase (monoclonal 1:1,000, Sigma Aldrich, Italy) and anti‐DARPP‐32 (H3) (1:100, Santa Cruz Biotechnology, #sc‐271111) overnight at 4°C. Sections were then incubated with biotinylated goat anti‐rabbit IgG (1:200, Vector Laboratories) or biotinylated goat anti‐mouse (1:200, Vector Laboratories) for 2 h. The classic avidin‐peroxidase complex (ABC, Vector, UK) protocol was applied, using 3,3′‐diaminobenzidine (DAB, Sigma) as a chromogen.
(§2) For in vivo immunohistochemistry experiments, images were acquired from the dorsal striatum using a Leica DM IRB microscope under a 20× objective. The number of p‐ERK, p‐MSK‐1, p‐ELK, p‐MEK‐1, p‐VG K+, c‐Fos, and DARPP‐32 positive cells was counted in 2–3 consecutive sections per mouse, bilaterally and averaged across the sections using the ImageJ software by a blind investigator to the condition. Estimation of nigral cell loss was assessed by quantifying the number of TH‐immunopositive neurons of the SNc in 360 μm‐spaced sections for each animal.

[3] = system: pAcH3; experiment: Striatal pAcH3 immunofluorescence 1 h after single injection; format: in vivo, mouse; settings: single injection 20 mg/kg i.p., individual mice
Protocol: Immunofluorescence was performed as described in Papale et al ([2016]). Briefly, 1 h after blocking in 5% normal goat serum, slices were incubated overnight at 4°C with the following primary antibodies: anti‐phospho (Ser10)‐acetylated (Lys14) histone H3 (1:1,000, Millipore), anti‐phospho‐S6 ribosomal protein (Ser235/236) (1:200, Cell Signaling Technology) anti‐phospho‐S6 ribosomal protein (Ser240/244) (1:200, Cell Signaling), cleaved caspase‐3 (1:200, Cell Signaling Technology), anti‐mutant Huntingtin (1:100, Developmental Studies Hybridoma Bank, University of Iowa, #MW8), and NeuN (1:1,000, Millipore). Corresponding secondary antibodies (Alexa Fluor 546 conjugated anti‐mouse (1:200, Thermo Fisher Scientific), Alexa Fluor 488 conjugated anti‐rabbit (1:500, Thermo Fisher Scientific) and Pacific Blue goat anti‐mouse (1:200, Thermo Fisher Scientific) were incubated at room temperature for 1 h. Sections stained for mutant Huntingtin were incubated with DAPI for 20 min. Sections were subsequently mounted with fluorescent mounting medium (DAKO). Single and double‐labeled images ([…]) were obtained at 40× magnification from the striatum using a laser scanning confocal microscope (Leica SP2) equipped with the corresponding lasers and appropriate filter sets to avoid the crosstalk between the fluorochromes.
(§3) In ex‐vivo and in‐vivo immunofluorescence experiments, the number of p‐S6 or p‐AcH3 immunoreactive neurons among NeuN‐positive neurons was counted in 2–3 consecutive striatal sections per mouse in four fields per section. Caspase 3‐positive cells were quantified among NeuN‐positive neurons in each slide and expressed as percentage (ratio between caspase‐3‐positive cells and total NeuN‐positive neurons) for each field acquired through the slide. The number of cells showing mutant Huntingtin inclusions were expressed as a percentage of mutant Huntingtin‐positive cells among DAPI‐positive cells.

[4] = system: S6 (Ser240/244) phosphorylation; experiment: Striatal pS6 (Ser240/244) immunofluorescence 1 h after single injection; format: in vivo, mouse; settings: single injection 20 mg/kg i.p., individual mice
Protocol: Immunofluorescence was performed as described in Papale et al ([2016]). Briefly, 1 h after blocking in 5% normal goat serum, slices were incubated overnight at 4°C with the following primary antibodies: anti‐phospho (Ser10)‐acetylated (Lys14) histone H3 (1:1,000, Millipore), anti‐phospho‐S6 ribosomal protein (Ser235/236) (1:200, Cell Signaling Technology) anti‐phospho‐S6 ribosomal protein (Ser240/244) (1:200, Cell Signaling), cleaved caspase‐3 (1:200, Cell Signaling Technology), anti‐mutant Huntingtin (1:100, Developmental Studies Hybridoma Bank, University of Iowa, #MW8), and NeuN (1:1,000, Millipore). […]
as §3

[5] = system: pERK1/2; experiment: pERK1/2 in striatum of zQ175 females after RB5; format: in vivo, mouse; settings: zQ175 females and WT controls, RB5 for 9 days
Protocol: as §1, with “Sections were then incubated with biotinylated goat anti‐rabbit IgG (1:200, Vector Laboratories) or biotinylated goat anti‐mouse (1:200, Vector Laboratories) for 2 h. The classic avidin‐peroxidase complex (ABC, Vector, UK) protocol was applied, using 3,3′‐diaminobenzidine (DAB, Sigma) as a chromogen.” left out
as §2, with “animal. […]” for “animal.”

[6] = system: cleaved caspase-3; experiment: Cleaved caspase-3 in dentate gyrus of Tg2576 mice; format: in vivo, mouse; settings: for cleaved caspase-3 in dentate gyrus (Fig 5 panel l): individual animals
[7] = system: cleaved caspase-3; experiment: Cleaved caspase-3 in striatum, 3-NP model with RB5; format: in vivo, mouse; settings: peptide 20 mg/kg i.p. twice a day plus 3-NP 50 mg/kg i.p. once a day, 7 days; individual mice
From the text: as §3

[8] = system: tyrosine hydroxylase (TH) positive cells of the SNc; experiment: TH-positive cells in SNc, MPTP model; format: in vivo, mouse
Protocol: Immunohistochemistry was performed as described in Papale et al ([2016]). […]
as §2, with “animal. […]” for “animal.”
Immuno‐labeled sections were visualized under a Leica DM/RBE light microscope and an Olympus BX50 light microscope with Visiopharm Integrator System software (version 4.4.6.9). TH‐positive cells were counted at 200‐μm intervals. The total number of cells (C) for each animal was calculated using the following formula: C = ∑c × (∑A/∑a) × f, where c is the number of cells in each sampling frame, A is the inclusion area for each section, a is the area of the sampling frame for each animal, and f is the frequency of sectioning.

[9] = system: pERK1/2; experiment: pERK1/2 in dorsal striatum, MPTP model; format: in vivo, mouse
Protocol: as §1, with “Sections were then incubated with biotinylated goat anti‐rabbit IgG (1:200, Vector Laboratories) or biotinylated goat anti‐mouse (1:200, Vector Laboratories) for 2 h. The classic avidin‐peroxidase complex (ABC, Vector, UK) protocol was applied, using 3,3′‐diaminobenzidine (DAB, Sigma) as a chromogen.” left out
as §2, with “animal. […]” for “animal.”

[10] = MPTP 20 mg/kg i.p. and RB5 20 mg/kg i.p. for 4 days

| Substance | Average EPSC amplitude over last 5 min of recording, normalized to first minute [1] | Average EPSC amplitude over last 5 min of recording, normalized to first minute ([1]; listed as Scr) | ERK activity (pERK) in striatum ([2]; 10 month-old HdhQ111/+ mice, 20 mg/kg i.p. for 8 days) | pERK in striatum (Fig 5 panel d) ([2]; HdhQ111/+ mice) | pERK in striatum (Fig 5 panel d) ([2]; WT mice) | pAcH3 positive neurons in striatum ([3]; ERK1+/+ (WT) mice) | pAcH3 positive neurons in striatum ([3]; ERK1-/- mice) | pAcH3 positive neurons in striatum ([3]; 1 h) | pS6 (Ser240/244) positive neurons in striatum [4] | pERK1/2 levels in striatum [5] | Preapoptotic phenotype measured by caspase-3 ([6]; Tg2576 mice, 7 months old, 20 mg/kg i.p. for 7 days) | cleaved caspase-3 in dentate gyrus (Fig 5 panel l) ([6]; Tg2576 mice) | cleaved caspase-3 in dentate gyrus (Fig 5 panel l) ([6]; WT mice) | Cleaved caspase-3-positive cells among NeuN-positive neurons [7] | Tyrosine hydroxylase (TH) loss in SNc [8, 10] | TH-positive cells in SNc (Fig 5 panel g) ([8]; MPTP model, individual animals) | pERK1/2 in dorsal striatum of MPTP-treated animals [9, 10] | pERK1/2 in dorsal striatum (Fig 5 panel i) ([9]; MPTP model, individual animals) |
| --- | --- | --- | --- | --- | --- | --- | --- | --- | --- | --- | --- | --- | --- | --- | --- | --- | --- | --- |
| SCR: ineffective Scramble version of RB5 containing a TAT sequence (GRKKRRQRRRPPRVGPGVPEGVGVAVFGVKEPGQTGDVGPVGE) [reference compound] | had no effect | 0.9389 | – | – | – | – | – | – | – | – | – | – | – | – | – | – | – | – |
| GRKKRRQRRRPPQGGGGGEPRRTEGVGPGVPGEVEMVKGQPFDV [RB5, six D-amino acids, acetylated N-terminus] | – | – | enhancing ERK activity | 485.6 and 573.909 and 510.978 and 613 and 540.374 and 579.569 and 517.606 and 519.5 and 515.6 | 416.7 and 470.92 and 371.49 and 542.1 and 453.63 and 361.4 and 405.17 and 381.6 | enhanced pERK and pAcH3 in WT | not in ERK1 KO mice | selectively activated | no effect | enhanced | significantly reduced the preapoptotic phenotype | 0.77 and 0.91 and 0.62 and 1.34 and 0.79 and 1.19 and 1.3 | 0.76 and 0.9 and 0.39 and 0.92 and 0.68 and 0.62 and 0.56 and 0.58 and 0.59 | significantly reduced neuronal death | prevented tyrosine hydroxylase (TH) loss | 3818.38 and 2495.7 and 4195.82 and 2081.4 and 2629.68 and 4880.04 and 2139.82 and 2203.06 and 3349.83 and 3862.19 and 2316.4 and 3288.79 and 3386.28 | further enhanced | 320.238 and 468.254 and 523.81 and 295.238 and 784.921 and 378.571 and 564.683 and 633.333 and 362.302 and 348.413 and 268.452 and 448.016 and 342.46 and 421.429 |
